IC50 data for one compound are collected here from article doi:10.1101/2020.06.19.161828v1 (biorxiv, 2020).

In the experiment the target is T1, LmME (Leishmania major, UniProt Q4QAQ6).
T1 sequence (Q4QAQ6 1-573): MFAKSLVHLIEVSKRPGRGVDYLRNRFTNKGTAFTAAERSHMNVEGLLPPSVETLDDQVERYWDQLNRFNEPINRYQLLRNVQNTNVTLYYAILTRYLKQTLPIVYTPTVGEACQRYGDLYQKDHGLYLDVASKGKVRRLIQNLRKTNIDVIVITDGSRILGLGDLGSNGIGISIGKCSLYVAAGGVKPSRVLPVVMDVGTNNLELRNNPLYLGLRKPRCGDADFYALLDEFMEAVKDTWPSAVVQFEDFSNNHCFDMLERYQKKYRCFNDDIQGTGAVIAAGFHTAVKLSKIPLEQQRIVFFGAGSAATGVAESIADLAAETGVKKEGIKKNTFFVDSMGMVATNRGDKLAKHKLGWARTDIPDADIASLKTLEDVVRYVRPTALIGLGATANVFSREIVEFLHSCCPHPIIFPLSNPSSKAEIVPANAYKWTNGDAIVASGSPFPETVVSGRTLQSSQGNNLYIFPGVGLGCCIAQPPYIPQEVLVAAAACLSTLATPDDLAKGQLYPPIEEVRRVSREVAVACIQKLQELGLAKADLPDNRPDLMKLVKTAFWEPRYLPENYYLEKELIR
Description: spectrophotometric NADPH assay at […] nm, malate decarboxylation. The format is biochemical.

As usually defined, the IC50 is the concentration needed to halve the response being measured. The low end stands for higher potency, the high end for lower potency. `c1ccc(-c2nnc3sc(Cc4ccc5c(c4)CCCC5)nn23)nc1` [ATR7-010] came in with a concentration for half-maximal inhibition (IC50) of 1590 nM.
